Source: patent US12286439B2, “Inhibitors of ERK nuclear translocation” (Yeda Research and Development Co. Ltd., priority 2018, dated 2025)
“Also recorded” adds a separate entry of the source.

Columns and labels:
[1] = test system: A2185 and A2352 cells; experiment: Viability assay (methylene blue), two BRAF melanoma cells; type: cell-based; settings: 3 μM, 72 hours, 1% FCS
Experimental: FIGS. 10A, 10B and 10C present data from screening the 20 analogs of Compound Z2 (“C-compounds”) showing three particularly active anti-proliferative compounds. […] A2185 and A2352 cells were grown in 1% FCS containing DMSO (0.1%), EPE peptide, Compound Z56, Compound Z2 or C-compounds (10 μM), for 72 hours. Compounds were categorized according to activity: (1) active, below 40%; (2) moderate activity, below 80%; (3) not active, above 80%. […] A2185 and A2352 cells were grown in 1% FCS containing DMSO (0.1%), EPE peptide (10 μM), compounds Z56, Z2 or selected C-compounds (3 μM), for 72 hours. Empty squares/circles represent individual data points of proliferation. Full squares/circles indicate average proliferation of 2 independent experiments in triplicate±SE. Bold horizontal line defines arbitrary activity threshold of activity below 40%. FIG. 10C presents dose response curves of active C-compounds compounds. A2185 and A2352 were grown in 1% FCS media containing DMSO (0.1%), EPE peptide, Z56, Z2 (10 μM) or compounds C17, C22 and C23 (0.1-10 μM), for 72 hours. […] Cell viability was measured by staining with methylene blue. Data presented as percentage of DMSO control. Bar graphs represent average of 2 independent experiments done in triplicates ±SE.
FIG. 13 presents a graph showing the effect of analogs of Compound C17 (“D-compounds”) on cell viability at a concentration of 10 μM. A2185 and A2352 cells were grown in 1% FCS media containing DMSO (0.1%) EPE peptide (10 μM), Compounds Z56, Z2, C17 (10 μM) as controls, and D-Compounds (10 μM), for 72 hours. Viable cells were measured by staining with methylene blue. Bar graphs represent average of 2 independent experiments done in triplicates. Data presented as percentage of DMSO proliferation ±standard error.
FIG. 14 presents a graph showing the effect of analogs of Compound C17 (“D-compounds”) on cell viability at a concentration of 1 μM. A2185 and A2352 cells were grown in 1% FCS media containing DMSO (0.1%), EPE peptide (10 μM), Compounds Z56, Z2 and C17 (1 and 10 μM) as controls, and D-compounds (1 μM), for 72 hours. Viable cells were measured by staining with methylene blue. Bar graphs represent average of 2 independent experiments done in triplicates. Data presented as percentage of DMSO proliferation ±standard error.
Cells were seeded at low confluence into 24, 48 or 96-well plates in complete medium. After 24 hours, medium was replaced by 1% FCS (fetal calf serum) containing appropriate treatments. Fresh medium containing the same agents was replaced every day. After 72 or 96 hours of treatment, cells were fixed with 4% formaldehyde overnight at 23° C., washed once with 0.1 M borate buffer (pH 8.5) for 10 minutes, and stained with of 1% methylene blue in 0.1 M borate buffer (pH 8.5) for 30 minutes. Excess stain was washed out with distilled water. Color was extracted by adding 0.1 M HCl (3 hours, 23° C.), and absorbance measured at 595 nm in an ELISA reader. For time course experiments, attached cells were fixed and measured at 0, 24, 48, 72 and 96 hours. For dose-response experiments, cells were treated with indicated concentrations of reagent, fixed and stained after 72 hours as above.
The ability of the selected compounds to reduce cell viability of two BRAF melanoma cells (A2185 and A2352) was evaluated. Initially, all compounds were assayed at a relatively high concentration of 10 μM.

[2] = test system: A2185 cells; experiment: Viability assay, dose response in A2185 cells; type: cell-based; settings: 0.1-10 μM, 72 hours, 1% FCS
Experimental: Four cancer cells, A2185, A2352, HeLa and MCF7 were grown in 1% FCS containing 10 μM of either EPE peptide, or Compounds Z56, Z1, Z2 or Z3, for 72 hours. Bars indicate average of 2 independent experiments done in triplicate ±SE. FIG. 8B presents dose response curves for Compounds Z56, Z1 and Z2. A2185 cells were grown in 1% FCS containing DMSO (0.1%) EPE or Scramble (Scr) peptide (10 μM), Compounds Z56, Z1, Z2, Z3 ([…]) or no treatment (FCS 1%) for 72 hours. Empty squares represent individual data points of proliferation. Full squares indicate average proliferation of 2 independent experiments done in triplicate ±SE. Bold horizontal line indicates arbitrary threshold (40%) for what is considered an active compound. Cell viability (as shown in FIGS. 8A and 8B) was measured by staining with methylene blue, and data presents proliferation normalized to DMSO control. […] Cell lysates were analyzed by Western blot with the corresponding antibodies. […]
Cells were seeded at low confluence into 24, 48 or 96-well plates in complete medium. […] Color was extracted by adding 0.1 M HCl (3 hours, 23° C.), and absorbance measured at 595 nm in an ELISA reader. For time course experiments, attached cells were fixed and measured at 0, 24, 48, 72 and 96 hours. […]

O=C(OC1C=CS(=O)(=O)C1)c1ccccc1 (centres unmarked) [Compound Z2]
cell viability at lower concentration [1]: variable activity | cell viability, dose response curve [2]: dose dependent manner; also recorded: somewhat less potent than Compound Z56
